Assay results published in publication PMC10033409, “Autoregulation of GPCR signalling through the third intracellular loop” (Nature, 2023).
Where “and” joins values, the source holds several entries; their conditions need not be identical. Equal values may be shown once. Where a name gives a salt, the structure may show the parent alone. Read-outs that look alike come from different tables or passages of the source.

Experiments:
β2AR [1] = details: for competition binding curve vs isoproterenol (Extended Data Figure 3L) / competition binding curve vs isoproterenol (Extended Data Figure 3L), Fit: Wild-Type; for competition binding curve vs isoproterenol (Extended Data Figure 3L): replicates 1-3 and Average; for competition binding curve vs isoproterenol (Extended Data Figure 3L), Fit: fitted curve
Procedure: Reactions were equilibrated, washed, and measured following the same procedure listed above for the radioligand antagonist-binding assay. […] Weighted averages of these IC50 values were used for comparison purposes and inhibition constant (Ki) calculations. […] Binding assays were performed in technical duplicates. Three biological replicates were collected with different membrane preparations for each replicate.

PTH1R = molecular target: T1, PTH1R (Homo sapiens, UniProt Q03431); assay: cAMP accumulation, PTH1R; assay type: cell-based; details: PTH1R Wild-Type
T1 construct: expressed in transfected cells; host or cells: HEK 293T
T1 sequence (Q03431 27-593): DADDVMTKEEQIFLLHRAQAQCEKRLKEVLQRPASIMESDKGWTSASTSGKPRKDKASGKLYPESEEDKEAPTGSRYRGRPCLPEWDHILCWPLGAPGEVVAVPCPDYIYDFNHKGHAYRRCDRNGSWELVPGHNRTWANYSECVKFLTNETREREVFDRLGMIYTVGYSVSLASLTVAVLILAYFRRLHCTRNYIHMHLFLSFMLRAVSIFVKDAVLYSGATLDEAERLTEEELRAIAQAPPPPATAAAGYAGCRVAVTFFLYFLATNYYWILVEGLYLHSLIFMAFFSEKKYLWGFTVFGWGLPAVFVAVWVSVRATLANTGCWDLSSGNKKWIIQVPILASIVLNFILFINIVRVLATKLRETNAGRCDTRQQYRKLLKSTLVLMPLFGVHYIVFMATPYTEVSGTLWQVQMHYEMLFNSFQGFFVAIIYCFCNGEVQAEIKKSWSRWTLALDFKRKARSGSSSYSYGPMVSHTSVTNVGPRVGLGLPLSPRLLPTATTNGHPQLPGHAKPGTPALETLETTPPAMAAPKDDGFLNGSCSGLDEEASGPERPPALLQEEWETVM
Procedure: One millilitre of medium was removed from each well containing transfected cells. The remaining volume was used to gently shear and resuspend the cells by pipetting. The cell mixture was centrifuged (3 min, 300g) and media was removed using a vacuum manifold. […] The cells were washed once by repeating this procedure.
For all other second messenger assays, expression level and cell density of each condition was estimated through fluorescence. Fluorescence spectra for mCerulean (Horiba Fluoromax 4, excitation 430 nm, emission scan 450–600 nm, bandpass 4 nm) and mCitrine (Horiba Fluoromax 4, excitation 490 nm, emission scan 500–600 nm, bandpass 4 nm) were acquired for each condition. Cells were resuspended at 350,000 ± 30,000 fluorescence counts at a wavelength representing optical density of the sample (excitation 430 nm/emission 450 nm), corresponding with 2 × 10^6 ± 5 × 10^5 cells per m^l. This was confirmed by counting the cells on a haemocytometer (Countess II).
Resuspended cells were added 1:1 with a 2× concentration of ligand (10 µl final) into an opaque 384-well flat bottom plate (Greiner Bio-One). […] For dose–response curves, a saturating concentration of forskolin (10 µM) was included as a control to measure cAMP stimulation independent of the transfected receptor. […] For all other experiments, plates were incubated at room temperature for 10 min. […] Reactions were quenched and processed for the cAMP-Glo Assay (Promega) following the manufacturer’s instructions. Luminescence was measured on a Tecan Spark plate reader (500 ms integration, one measurement per well).

β2AR [2] = assay: cAMP accumulation (cAMP-Glo), β2AR; assay type: cell-based, human; details: for cAMP response (Average): β2AR L258Azi
[3] = tested on: endogenous adrenergic receptors in HEK 293T cells; assay: cAMP accumulation, untransfected cells; assay type: cell-based, human; details: untransfected HEK 293T cells; Isoproterenol 10 µM
Procedure: Resuspended cells were added 1:1 with a 2× concentration of ligand (10 µl final) into an opaque 384-well flat bottom plate (Greiner Bio-One). […]. for FSK inhibition assays with β-ARs, 100 µM metoprolol was used. For dose–response curves, a saturating concentration of forskolin (10 µM) was included as a control to measure cAMP stimulation independent of the transfected receptor. For experiments comparing multiple receptors measuring non-cognate or secondary Gs signalling (Fig. 4e, Extended Data Fig. 8i–k), 500 µM 3-isobutyl-1-methylxanthine (IBMX) was used to inhibit phosphodiesterase activity. For all other experiments, no IBMX was used to minimize cAMP accumulation from endogenous receptors (Extended Data Fig. 6a). For experiments in Fig. 2g and Extended Data Fig. 6b,e, plates were incubated at 37 °C for 10 min to stimulate cAMP production. For all other experiments, plates were incubated at room temperature for 10 min. […] Reactions were quenched and processed for the cAMP-Glo Assay (Promega) following the manufacturer’s instructions. Luminescence was measured on a Tecan Spark plate reader (500 ms integration, one measurement per well). […]

Q: With CC(C)NCC(O)c1ccc(O)c(O)c1 (stereo not drawn) [Isoproterenol, isoproterenol (+)-bitartrate salt] as the compound, how does the “competition binding curve vs isoproterenol (Extended Data Figure 3L)” value (β2AR [1]; Isoproterenol 1.00E-03 M) read?
A: -0.10 and -0.40 and -0.34 and -0.28

Q: And the “competition binding curve vs isoproterenol (Extended Data Figure 3L), Fit” value (from here on “competition binding curve vs isoproterenol … Fit”) (β2AR [1]; Isoproterenol 1.00E-04 M)?
A: 0.67

Q: What about the “competition binding curve vs isoproterenol (Extended Data Figure 3L)” value (β2AR [1]; Isoproterenol 1.00E-04 M) of the same compound?
A: 0.94 and 0.31 and 1.43 and 0.89

Q: What about the “competition binding curve vs isoproterenol … Fit” value (β2AR [1]; Isoproterenol 1.00E-05 M) of the same compound?
A: 5.86

Q: And the “competition binding curve vs isoproterenol (Extended Data Figure 3L)” value (β2AR [1]; Isoproterenol 1.00E-05 M)?
A: 6.24 and 5.08 and 7.57 and 6.30

Q: And the “competition binding curve vs isoproterenol … Fit” value (β2AR [1]; Isoproterenol 1.00E-06 M)?
A: 32.07

Q: And the “competition binding curve vs isoproterenol (Extended Data Figure 3L)” value (β2AR [1]; Isoproterenol 1.00E-06 M)?
A: 32.68 and 27.33 and 35.77 and 31.93

Q: What about the “competition binding curve vs isoproterenol … Fit” value (β2AR [1]; Isoproterenol 1.00E-07 M) of the same compound?
A: 78.70

Q: What about the “competition binding curve vs isoproterenol (Extended Data Figure 3L)” value (β2AR [1]; Isoproterenol 1.00E-07 M) of the same compound?
A: 79.40 and 70.32 and 85.20 and 78.31

Q: And the “competition binding curve vs isoproterenol … Fit” value (β2AR [1]; Isoproterenol 1.00E-08 M)?
A: 97.15

Q: And the “competition binding curve vs isoproterenol (Extended Data Figure 3L)” value (β2AR [1]; Isoproterenol 1.00E-08 M)?
A: 99.13 and 95.83 and 100.15 and 98.37

Q: What about the “competition binding curve vs isoproterenol … Fit” value (β2AR [1]; Isoproterenol 1.00E-09 M) of the same compound?
A: 99.60

Q: And the “competition binding curve vs isoproterenol (Extended Data Figure 3L)” value (β2AR [1]; Isoproterenol 1.00E-09 M)?
A: 96.70 and 99.42 and 102.28 and 99.47

Q: What about the “competition binding curve vs isoproterenol … Fit” value (β2AR [1]; Isoproterenol 1.00E-10 M) of the same compound?
A: 99.85

Q: What about the “competition binding curve vs isoproterenol (Extended Data Figure 3L)” value (β2AR [1]; Isoproterenol 1.00E-10 M) of the same compound?
A: 100.00 and 99.63 and 97.46 and 99.03

Q: What about the “competition binding curve vs isoproterenol … Fit” value (β2AR [1]; Isoproterenol 5.00E-06 M) of the same compound?
A: 10.54

Q: And the “competition binding curve vs isoproterenol (Extended Data Figure 3L)” value (β2AR [1]; Isoproterenol 5.00E-06 M)?
A: 11.05 and 8.39 and 11.22 and 10.22

Q: What about the “competition binding curve vs isoproterenol … Fit” value (β2AR [1]; Isoproterenol 5.00E-07 M) of the same compound?
A: 46.03

Q: And the “competition binding curve vs isoproterenol (Extended Data Figure 3L)” value (β2AR [1]; Isoproterenol 5.00E-07 M)?
A: 47.06 and 40.75 and 51.12 and 46.31

Q: What about the “% Cyanopindolol Bmax, Average” value (β2AR [1]; β2AR ∆ICL3 + 30 µM Gq-peptide, isoproterenol 3.00E-06 M) of the same compound?
A: 34.71%

Q: What about the “% Cyanopindolol Bmax, Average” value (β2AR [1]; β2AR ∆ICL3 + 30 µM Gq-peptide, isoproterenol 5.00E-06 M) of the same compound?
A: 27.06%

Q: What about the “% Cyanopindolol Bmax, Average” value (β2AR [1]; β2AR ∆ICL3 + 30 µM Gq-peptide, isoproterenol 5.00E-07 M) of the same compound?
A: 70.37%

Q: And the “% Cyanopindolol Bmax, Average” value (β2AR [1]; β2AR ∆ICL3, isoproterenol 3.00E-06 M)?
A: 30.73%

Q: And the “% Cyanopindolol Bmax, Average” value (β2AR [1]; β2AR ∆ICL3, isoproterenol 5.00E-06 M)?
A: 15.67%

Q: What about the “% Cyanopindolol Bmax, Average” value (β2AR [1]; β2AR ∆ICL3, isoproterenol 5.00E-07 M) of the same compound?
A: 65.90%

Q: What about the “cAMP (Isoproterenol/Forskolin Maximum), Average” value (PTH1R; [Isoproterenol] log(M) -5) of the same compound?
A: 0.55

Q: And the “cAMP (Isoproterenol/Forskolin Maximum), Average” value (PTH1R; [Isoproterenol] log(M) -6)?
A: 0.57

Q: What about the “cAMP (Isoproterenol/Forskolin Maximum), Average” value (PTH1R; [Isoproterenol] log(M) -7) of the same compound?
A: 0.59

Q: And the “cAMP (Isoproterenol/Forskolin Maximum), Average” value (PTH1R; [Isoproterenol] log(M) -8)?
A: 0.43

Q: What about the “cAMP (Isoproterenol/Forskolin Maximum), Average” value (PTH1R; [Isoproterenol] log(M) -8.30103) of the same compound?
A: 0.44

Q: What about the “cAMP (Isoproterenol/Forskolin Maximum), Average” value (PTH1R; [Isoproterenol] log(M) -9) of the same compound?
A: 0.10

Q: What about the “cAMP (Isoproterenol/Forskolin Maximum), Average” value (PTH1R; [Isoproterenol] log(M) -9.30103) of the same compound?
A: 0.00476

Q: And the “cAMP (Isoproterenol/Forskolin Maximum), Average” value (PTH1R; [Isoproterenol] log(M) -10)?
A: -0.0216

Q: And the “cAMP (Isoproterenol/Forskolin Maximum), Average” value (PTH1R; [Isoproterenol] log(M) -11)?
A: -0.00704

Q: What about the “cAMP (Isoproterenol/Forskolin Maximum), Average” value (PTH1R; [Isoproterenol] log(M) -12) of the same compound?
A: -0.08

Q: And the “Emax (Average)” value (β2AR [2]; β2AR L258 (L258Azi), fit of the isoproterenol concentration-response of Extended Data Figure 3B)?
A: 1.23E+05

Q: What about the “cAMP response (Average)” value (β2AR [2]; Log (Isoproterenol (M)) -4) of the same compound?
A: 1.30E+05

Q: And the “cAMP response (Average)” value (β2AR [2]; Log (Isoproterenol (M)) -5)?
A: 1.30E+05

Q: And the “cAMP response (Average)” value (β2AR [2]; Log (Isoproterenol (M)) -6)?
A: 1.28E+05

Q: And the “cAMP response (Average)” value (β2AR [2]; Log (Isoproterenol (M)) -7)?
A: 1.04E+05

Q: And the “cAMP response (Average)” value (β2AR [2]; Log (Isoproterenol (M)) -7.52288)?
A: 1.08E+05

Q: And the “cAMP response (Average)” value (β2AR [2]; Log (Isoproterenol (M)) -8)?
A: 1.10E+05

Q: What about the “cAMP response (Average)” value (β2AR [2]; Log (Isoproterenol (M)) -8.52288) of the same compound?
A: 6.79E+04

Q: What about the “cAMP response (Average)” value (β2AR [2]; Log (Isoproterenol (M)) -9) of the same compound?
A: 4.10E+04

Q: And the “cAMP response (Average)” value (β2AR [2]; Log (Isoproterenol (M)) -9.52288)?
A: 2.28E+04

Q: And the “cAMP response (Average)” value (β2AR [2]; Log (Isoproterenol (M)) -10)?
A: -8.91E+03

Q: What about the “cAMP response (Average)” value (β2AR [2]; Log (Isoproterenol (M)) -10.5229) of the same compound?
A: -2.86E+04

Q: And the “cAMP response (Average)” value (β2AR [2]; Log (Isoproterenol (M)) -11)?
A: -9.58E+03

Q: And the “cAMP response (Average)” value (β2AR [2]; Log (Isoproterenol (M)) -12)?
A: -4.68E+03

Q: What about the “cAMP response (Average)” value (β2AR [2]; Log (Isoproterenol (M)) -13) of the same compound?
A: 2.29E+03

Q: And the “cAMP generated from endogenous receptors” value [3]?
A: only detected in the presence of 500 µM IBMX
